Reference: patent publication US20250326794A1, “ANTI-CANCER LEUCINE-RICH PEPTIDES AND USES THEREOF” (KING'S COLLEGE LONDON, priority 2019, published 2025)

Legend:
[1] = ANTS/DPX liposome leakage assay, POPC vesicles; assay type: biochemical; conditions: 0.5 mM vesicles; for Peptide Concentration-induced 50% ANTS/DPX leakage at pH 4.8, POPC Vesicle: pH 4.8, lipid per peptide; for Peptide Concentration-induced 50% ANTS/DPX leakage at pH 7.4, POPC Vesicle: pH 7.4, lipid per peptide
Procedure, shortened: (§1)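 LUVs (100 nm extruded) of POPC or POPC:POPG 3:1, loaded with 5 mM ANTS/12.5 mM DPX, used at 0.5 mM lipid with peptide 0–20 μM in PBS pH 7.4 or HCl-adjusted PBS pH 4.8. Leakage read after 3 h (ex 350/em 510 nm) against 10% Triton maximum; 50% leakage expressed as lipid per peptide.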

[2] = test system: HMLER (human breast cancer bulk cell); assay: cells; conditions: 72 h
Procedure, shortened: (§2)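 MTT viability after 72 h exposure to 0–100 μM compound (final DMSO 0.5% or 0%), 5×10^3 cells/well; HMLER lines and MCF-10A in MEGM, U2OS in DMEM with 10% FBS. A550 normalized to matching vehicle controls; IC50 interpolated from dose–response curves.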

[3] = test system: HEK293T (human embryonic kidney cell); assay: cells; conditions: 72 h
[4] = test system: HMLER-shEcad (human breast cancer stem cell); assay: cells; conditions: 72 h
Procedure, shortened: as §2

[5] = Tryptophan fluorescent binding assay, 3POPC/1POPG vesicles; conditions: 50 μM peptide, PBS pH 7.4, lipid per peptide
Procedure, shortened: (§3)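 Peptide fixed at 50 μM, titrated with POPC or 3POPC/1POPG large unilamellar vesicles (100 nm extruded; 0-5000 μM lipid) in PBS pH 7.4. Tryptophan fluorescence (ex 280, em 300-450 nm) read after 60 min; lipid concentration giving 50% binding reported as lipid/peptide ratio.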

[6] = ANTS/DPX liposome leakage assay, 3POPC/1POPG vesicles; assay type: biochemical; conditions: 0.5 mM vesicles; for Peptide Concentration-induced 50% ANTS/DPX leakage at pH 4.8, 3POPC/1POPG Vesicle: pH 4.8, lipid per peptide; for Peptide Concentration-induced 50% ANTS/DPX leakage at pH 7.4, 3POPC/1POPG Vesicle: pH 7.4, lipid per peptide
Procedure, shortened: as §1

[7] = Tryptophan fluorescent binding assay, POPC vesicles; conditions: 50 μM peptide, PBS pH 7.4, lipid per peptide
Procedure, shortened: as §3

[8] = test system: U2OS (human bone osteosarcoma); conditions: 72 h
Procedure, shortened: as §2

| Compound | Peptide Concentration-induced 50% ANTS/DPX leakage at pH 4.8, POPC Vesicle [1] | Peptide Concentration-induced 50% ANTS/DPX leakage at pH 7.4, POPC Vesicle [1] | IC50 [2] | IC50 [3] | IC50 [4] | Lipid Concentration-induced 50% Peptide Binding, 3POPC/1POPG Vesicle [5] | Peptide Concentration-induced 50% ANTS/DPX leakage at pH 4.8, 3POPC/1POPG Vesicle [6] | Peptide Concentration-induced 50% ANTS/DPX leakage at pH 7.4, 3POPC/1POPG Vesicle [6] | Lipid Concentration-induced 50% Peptide Binding, POPC Vesicle [7] | IC50 [8] |
| --- | --- | --- | --- | --- | --- | --- | --- | --- | --- | --- |
| CC(C)C[C@H](NC(=O)CN)C(=O)N[C@@H](CC(C)C)C(=O)N[C@@H](CCCCN)C(=O)N[C@@H](CC(C)C)C(=O)N[C@@H](CC(C)C)C(=O)N[C@@H](Cc1c[nH]cn1)C(=O)N[C@@H](CC(C)C)C(=O)N[C@@H](CC(C)C)C(=O)N[C@@H](CC(C)C)C(=O)N[C@@H](Cc1c[nH]cn1)C(=O)N[C@@H](C)C(=O)N[C@@H](C)C(=O)NCC(=O)N[C@@H](Cc1c[nH]c2ccccc12)C(N)=O [KHH] | 227 L/P | 1153 L/P | 5.2 ± 0.71 µM | 7.75 ± 0.78 µM | 4.45 ± 0.49 µM | 0.94 L/P | 48 L/P | 329 L/P | 3.50 L/P | 39.8 ± 5.3 µM |
| CC(C)C[C@H](NC(=O)CN)C(=O)N[C@@H](CC(C)C)C(=O)N[C@@H](CCCCN)C(=O)N[C@@H](CC(C)C)C(=O)N[C@@H](CC(C)C)C(=O)N[C@@H](Cc1c[nH]cn1)C(=O)N[C@@H](CC(C)C)C(=O)N[C@@H](CC(C)C)C(=O)N[C@@H](CC(C)C)C(=O)N[C@@H](CCCCN)C(=O)N[C@@H](C)C(=O)N[C@@H](C)C(=O)NCC(=O)N[C@@H](Cc1c[nH]c2ccccc12)C(N)=O [KHK] | 140 L/P | 1153 L/P | 2.59 ± 0.92 µM | 3.55 ± 0.78 µM | 1.4 ± 0.14 µM | 0.38 L/P | 53 L/P | 193 L/P | 0.17 L/P | 12.9 ± 1.24 µM |
| CC(C)C[C@H](NC(=O)CN)C(=O)N[C@@H](CC(C)C)C(=O)N[C@@H](CCCCN)C(=O)N[C@@H](CC(C)C)C(=O)N[C@@H](CC(C)C)C(=O)N[C@@H](CCCCN)C(=O)N[C@@H](CC(C)C)C(=O)N[C@@H](CC(C)C)C(=O)N[C@@H](CC(C)C)C(=O)N[C@@H](CCC(=O)O)C(=O)N[C@@H](C)C(=O)N[C@@H](C)C(=O)NCC(=O)N[C@@H](Cc1c[nH]c2ccccc12)C(N)=O [KKE] | 143 L/P | 1133 L/P | 2.05 ± 0.64 µM | 4.4 ± 0.14 µM | 1.7 µM | 0.44 L/P | 131 L/P | 346 L/P | 0.48 L/P | 12.8 ± 1.2 µM |
| CC(C)C[C@H](NC(=O)CN)C(=O)N[C@@H](CC(C)C)C(=O)N[C@@H](CCCCN)C(=O)N[C@@H](CC(C)C)C(=O)N[C@@H](CC(C)C)C(=O)N[C@@H](CCCCN)C(=O)N[C@@H](CC(C)C)C(=O)N[C@@H](CC(C)C)C(=O)N[C@@H](CC(C)C)C(=O)N[C@@H](Cc1c[nH]cn1)C(=O)N[C@@H](C)C(=O)N[C@@H](C)C(=O)NCC(=O)N[C@@H](Cc1c[nH]c2ccccc12)C(N)=O [KKH] | 164 L/P | 2119 L/P | 2.4 ± 0.85 µM | 4 ± 0.28 µM | 2.2 ± 0.42 µM | 0.48 L/P | 49 L/P | 227 L/P | 0.83 L/P | 13.3 ± 0.99 µM |
